Experimental data: patent US20250057799A1, “Anti-Inflammatory Methods with Compositions Comprising Site-Specific Isotopically-Modified Fatty Acids” (BioJiva LLC, priority 2021, published 2025)
Entries after “also recorded” stand apart in the source; their conditions may differ.

System: LPS-inflicted lung inflammation
Assay: LPS-inflicted lung inflammation model in mice (lung morphometry)
Format: in vivo
Details: for interalveolar septa thickness (result in words) / alveolar lumen area (result in words): 6-week dietary course then single intranasal LPS; for interalveolar septa thickness (result in words): compared with control mice without LPS; for alveolar lumen area (result in words): compared with control mice without LPS / H-form; for Partition thickness Me (25%; 75%): 6-week dietary course followed by single intranasal LPS, median
Procedure: FIGS. 3-6. Groups of female (f) and male (m) mice received a 6-week course of dietary (H) AA or a 6-week course of deuterated arachidonic acid (D6-ARA, 15 mg/day) followed by single intranasal administration of LPS.
COX and LOX inhibitors can be employed to down-regulate this process, with various efficacy. In contrast, the methods of the present disclosure rely on deuteration of the three oxidation prone sites within PUFA molecules, to substantially slow down the rate limiting step of oxidation (both enzymatic and non-enzymatic) via the isotope effect (IE). Made in high yield via a catalytic process, such D-PUFAs were tested in a lipopolysaccharide (LPS)-inflicted lung inflammation model in mice, a well-known lung inflammation model. (See Example 1.)
For example, the mouse LPS model has been used as a model for human acute lung injury (ALI), as the mouse lung parenchyma is damaged by the generation and release of proteases and reactive oxygen and nitrogen species produced by activated lung macrophages and transmigrated neutrophils in the interstitial and alveolar compartments. The end results are microvascular injury and diffuse alveolar damage with intrapulmonary hemorrhage, edema, and fibrin deposition (Johnson and Ward, J. Clin. Invest., (1974), 54:349-357; Flierl et al., Med. Hypothesis Res., (2006), 3:727,738), which are also features in patients with ALI and the acute respiratory distress syndrome (ARDS) (Kabir et al., Shock, (2002), 17:300-303; Ward, Am. J. Pathol., (1996), 149:1081-1086). This LPS model recapitulates aspects of the inflammatory cascades that are associated with pulmonary inflammation associated with lung disease in humans, and so is useful as a screen for compounds that may disrupt these cascades and attenuate or abort the disease process. As discussed herein, in some embodiments, the D-PUFAs of the present disclosure are administered to break the inflammatory cascade of specific cytokines and chemokines known to induce and amplify lung inflammation. Thus, for example, one can experimentally assess the efficacy of the D-PUFAs by examining whether the levels of inflammation associated markers are reduced. Two such markers, monocyte chemoattractant protein (MCP-1), and tumor necrosis factor alpha (TNF-a), are found to be associated with early and chronic infection and inflammation in humans and are mirrored in rodent models of airway inflammation including the mouse LPS pulmonary inflammation model.
LPS treatment promotes inflammation through various mechanisms including secretion of pro-inflammatory cytokines, eicosanoids and induction of ROS. Following induction by the intranasal administration of LPS, an acute lung inflammation quickly follows. […] Such a pronounced inflammatory infiltration of the interalveolar septa contributed to their destruction and more frequent formation of emphysema foci in this group. […] (See FIGS. 3-6.)
The degree of alveolar lumen area changes in both groups of animals depended on gender.

Structure (SMILES)	interalveolar septa thickness (result in words)	alveolar lumen area (result in words)	interalveolar septa thickness (result in words) (listed as AA)	Partition thickness Me (25%; 75%) (females)	alveolar lumen area (result in words) (listed as D-form)	degree of inflammatory lesion of the lungs (D-form compared to H-form, after 6-week course and LPS)	Partition thickness Me (25%; 75%) (males)	protective / therapeutic effect compared to other deuterated PUFAs (preliminary data (not shown))
CCCCC/C=C\C/C=C\C/C=C\C/C=C\CCCC(=O)O [H-ara, arachidonic acid, reference compound]	significantly increased	increase	increase	9.1 μm	–	–	–	–
[2H]C([2H])(/C=C\CCCCC)/C=C\C([2H])([2H])/C=C\C([2H])([2H])/C=C\CCCC(=O)O [D-ara, 7,7,10,10,13,13-D6-arachidonic acid]	consistent with controls	consistent with controls	–	3.6 μm	decrease in alveoli lumens	lesser degree of inflammatory lesion	5.55 μm	better therapeutic effect; also recorded: best protective effect
